Active and inactive are the calls of the source.
Key:
[1] = molecular target: Nonstructural protein 1 (Influenza A virus, UniProt Q194T2); assay type: functional, Influenza A virus (A/California/07/2009(H1N1))
[2] = test system: HEK293; assay: inhibitors of LMP1-driven NF-kB reporter, dose response, cell-based, HEK293, luciferase, cherry-pick (AID 588343); assay type: functional; details: Homo sapiens
[3] = cells; assay type: functional, cell-based
[4] = molecular target: ATP-dependent molecular chaperone HSP82 (Candida albicans (strain WO-1) (Yeast), UniProt C4YTQ8); assay: loss of DOC-induced GRE-beta-galactosidase reporter signal, dose response, Hsp90 inhibitor project, S. cerevisiae, luminescence (AID 2400); assay type: functional, cell-based;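 also: beta-galactosidase luminescence from glucocorticoid response element reporter as proxy for Hsp90 function; inhibitor potency where signal loss means Hsp90 inhibition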
[5] = C. albicans growth with fluconazole, confirmation, fluorescence, retest (AID 2467); assay type: functional, cell-based
[6] = molecular target: T1, Serine/threonine-protein phosphatase (Candida dubliniensis (strain CD36 / CBS 7987 / NCPF 3949 / NRRLY-17841) (Yeast), UniProt B9W6M3); assay: calcineurin pathway inhibitors in yeast reporter, dose response, S. cerevisiae, CDRE-lacZ, luminescence, secondary (AID 2388); assay type: functional, cell-based;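 also: yeast reporter cells carrying a calcineurin-responsive lacZ construct stimulated with calcium chloride; luminescent beta-galactosidase reporter signal in whole cells rather than isolated phosphatase activity; potency for inhibition where a drop in reporter signal means calcineurin blockade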
T1 sequence (B9W6M3 whole entry): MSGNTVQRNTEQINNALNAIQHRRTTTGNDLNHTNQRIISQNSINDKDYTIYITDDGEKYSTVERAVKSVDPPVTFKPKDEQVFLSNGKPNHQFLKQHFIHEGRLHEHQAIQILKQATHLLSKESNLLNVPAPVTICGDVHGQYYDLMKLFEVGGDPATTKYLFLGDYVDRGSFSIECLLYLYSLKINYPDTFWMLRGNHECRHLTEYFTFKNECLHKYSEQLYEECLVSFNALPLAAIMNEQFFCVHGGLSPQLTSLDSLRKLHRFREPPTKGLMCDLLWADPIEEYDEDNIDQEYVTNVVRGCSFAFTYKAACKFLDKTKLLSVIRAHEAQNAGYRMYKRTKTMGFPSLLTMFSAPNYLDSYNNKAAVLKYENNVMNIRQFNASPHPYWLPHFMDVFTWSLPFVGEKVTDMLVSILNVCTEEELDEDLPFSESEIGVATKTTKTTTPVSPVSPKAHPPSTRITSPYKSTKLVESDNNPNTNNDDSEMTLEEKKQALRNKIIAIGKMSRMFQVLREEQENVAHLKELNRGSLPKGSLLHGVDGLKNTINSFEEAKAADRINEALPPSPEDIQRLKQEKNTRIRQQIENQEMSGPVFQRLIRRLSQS

[7] = NIH-3T3 fibroblast cytotoxicity, dose response, cytotoxicity control, cell-based, fluorescence, Alamar Blue, secondary assay (AID 2327); assay type: functional;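 also: NIH-3T3 mouse fibroblasts cultured with fluconazole at 8 µg/mL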
[8] = cells; assay type: functional, cell-based; remark: listed apart in the source
[9] = molecular target: T2, Rac GTPase-activating protein 1 (Homo sapiens, UniProt Q9H0H5); assay: MgcRacGAP GTPase-activating activity inhibitors, confirmation, biochemical, ADP Hunter fluorescence, primary and confirmatory (AID 624330); assay type: functional
T2 sequence (Q9H0H5 whole entry): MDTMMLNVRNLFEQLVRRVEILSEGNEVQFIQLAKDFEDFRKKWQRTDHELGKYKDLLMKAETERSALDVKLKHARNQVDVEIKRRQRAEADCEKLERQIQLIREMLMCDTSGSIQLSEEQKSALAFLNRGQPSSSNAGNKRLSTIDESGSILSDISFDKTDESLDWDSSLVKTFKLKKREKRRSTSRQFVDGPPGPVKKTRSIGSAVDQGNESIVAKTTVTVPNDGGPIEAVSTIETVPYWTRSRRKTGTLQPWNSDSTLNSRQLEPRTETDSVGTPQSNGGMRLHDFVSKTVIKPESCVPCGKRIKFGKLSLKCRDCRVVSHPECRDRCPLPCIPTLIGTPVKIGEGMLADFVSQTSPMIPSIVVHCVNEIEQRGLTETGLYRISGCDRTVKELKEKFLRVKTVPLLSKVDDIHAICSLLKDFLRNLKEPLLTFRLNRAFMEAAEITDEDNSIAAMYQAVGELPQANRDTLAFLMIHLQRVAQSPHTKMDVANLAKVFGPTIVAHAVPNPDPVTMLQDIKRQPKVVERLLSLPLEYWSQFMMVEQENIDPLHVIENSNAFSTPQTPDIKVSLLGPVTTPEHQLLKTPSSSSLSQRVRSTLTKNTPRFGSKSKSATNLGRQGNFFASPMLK

[10] = ZM109 Env clade C HIV-1 fusion inhibitors, dose response, HeLa effector, CEM target cells, luciferase, cherry-pick (AID 652058); assay type: functional, cell-based
[11] = inhibitors of HIV Env-driven cell fusion, dose response, cherry-pick (AID 652057); assay type: functional, cell-based
[12] = inhibitors of clade B AD8 Env fusion, dose response, cell-based, cherry-pick (AID 652062); assay type: functional;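 also: luciferase signal from cell-cell fusion driven by HIV-1 clade B AD8 Env; potency is for inhibitors of fusion seen as a drop in luminescence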
[13] = molecular target: Prothrombin (Bos taurus, UniProt P00735); assay: thrombin inhibition, dose response, biochemical, fluorescence polarization, uHTS hits (AID 602369); assay type: functional
[14] = molecular target: 26S proteasome non-ATPase regulatory subunit 14 (Homo sapiens, UniProt O00487); assay: inhibition of proteasome subunit RPN11 – biochemical, fluorescence polarization, uHTS hits, confirmation (AID 602368); assay type: functional
[15] = molecular target: 72 kDa type IV collagenase (Homo sapiens, UniProt P08253); assay: Dose Response validation of uHTS RPN11 inhibitor hits using a MMP-2 Fluorescence assay.; assay type: functional
[16] = molecular target: Large T antigen (Simian virus 40, UniProt P03070); assay type: functional, Betapolyomavirus macacae;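 also: Confirmatory-stage PubChem screen for compounds that inhibit SV40 T antigen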
[17] = molecular target: T3, DNA repair protein RAD52 homolog (Homo sapiens, UniProt P43351); assay type: functional, biochemical
T3 sequence (P43351 whole entry): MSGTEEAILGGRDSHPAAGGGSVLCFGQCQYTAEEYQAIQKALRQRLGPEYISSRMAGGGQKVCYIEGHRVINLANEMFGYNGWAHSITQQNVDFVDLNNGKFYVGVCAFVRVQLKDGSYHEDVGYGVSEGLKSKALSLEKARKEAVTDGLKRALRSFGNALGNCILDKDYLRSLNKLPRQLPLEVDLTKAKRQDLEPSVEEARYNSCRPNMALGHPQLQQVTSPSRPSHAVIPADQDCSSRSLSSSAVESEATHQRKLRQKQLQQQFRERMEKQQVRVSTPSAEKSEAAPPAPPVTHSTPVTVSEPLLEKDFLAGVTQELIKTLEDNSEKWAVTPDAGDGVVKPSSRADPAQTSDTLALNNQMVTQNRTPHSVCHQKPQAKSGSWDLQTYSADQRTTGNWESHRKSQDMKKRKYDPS

[18] = off-target signal loss in HeLa-CEM21 co-culture – HeLa F-luc CTL cells, cherry-picked, counter-screen for HIV-1 Env fusion inhibitor project, dose response (AID 652040); assay type: functional, cell-based;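 also: potency for signal decrease marking cytotoxic or nonspecific inhibition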
[19] = molecular target: T4, DNA repair and recombination protein RAD54-like (Homo sapiens, UniProt Q92698); assay: inhibitors of human RAD54 branch migration, confirmation, biochemical, fluorescence, cherry-picked samples, dose series (AID 651657); assay type: functional
T4 sequence (Q92698 whole entry): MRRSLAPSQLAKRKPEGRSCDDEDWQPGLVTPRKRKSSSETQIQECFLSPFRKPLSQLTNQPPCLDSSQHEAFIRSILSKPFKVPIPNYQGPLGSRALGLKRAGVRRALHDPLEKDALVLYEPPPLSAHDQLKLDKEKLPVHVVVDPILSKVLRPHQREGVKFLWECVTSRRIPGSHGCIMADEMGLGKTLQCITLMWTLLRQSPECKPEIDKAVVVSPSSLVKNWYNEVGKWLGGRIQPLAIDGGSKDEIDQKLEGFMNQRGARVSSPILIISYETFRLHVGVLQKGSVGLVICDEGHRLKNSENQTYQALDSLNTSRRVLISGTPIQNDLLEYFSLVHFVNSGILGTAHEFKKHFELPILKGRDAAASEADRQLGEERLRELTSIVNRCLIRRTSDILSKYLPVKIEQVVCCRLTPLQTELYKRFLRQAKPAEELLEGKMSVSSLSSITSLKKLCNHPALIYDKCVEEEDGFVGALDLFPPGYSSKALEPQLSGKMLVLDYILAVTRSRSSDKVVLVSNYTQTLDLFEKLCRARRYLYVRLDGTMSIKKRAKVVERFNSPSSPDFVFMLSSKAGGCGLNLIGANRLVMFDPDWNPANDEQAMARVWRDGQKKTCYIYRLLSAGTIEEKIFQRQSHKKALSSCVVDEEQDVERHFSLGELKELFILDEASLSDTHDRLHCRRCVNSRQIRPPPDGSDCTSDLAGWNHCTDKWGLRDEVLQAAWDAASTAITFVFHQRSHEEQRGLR

[20] = molecular target: T5, Histone-lysine N-methyltransferase NSD2 (Homo sapiens, UniProt O96028); assay type: biochemical
T5 sequence (O96028 whole entry): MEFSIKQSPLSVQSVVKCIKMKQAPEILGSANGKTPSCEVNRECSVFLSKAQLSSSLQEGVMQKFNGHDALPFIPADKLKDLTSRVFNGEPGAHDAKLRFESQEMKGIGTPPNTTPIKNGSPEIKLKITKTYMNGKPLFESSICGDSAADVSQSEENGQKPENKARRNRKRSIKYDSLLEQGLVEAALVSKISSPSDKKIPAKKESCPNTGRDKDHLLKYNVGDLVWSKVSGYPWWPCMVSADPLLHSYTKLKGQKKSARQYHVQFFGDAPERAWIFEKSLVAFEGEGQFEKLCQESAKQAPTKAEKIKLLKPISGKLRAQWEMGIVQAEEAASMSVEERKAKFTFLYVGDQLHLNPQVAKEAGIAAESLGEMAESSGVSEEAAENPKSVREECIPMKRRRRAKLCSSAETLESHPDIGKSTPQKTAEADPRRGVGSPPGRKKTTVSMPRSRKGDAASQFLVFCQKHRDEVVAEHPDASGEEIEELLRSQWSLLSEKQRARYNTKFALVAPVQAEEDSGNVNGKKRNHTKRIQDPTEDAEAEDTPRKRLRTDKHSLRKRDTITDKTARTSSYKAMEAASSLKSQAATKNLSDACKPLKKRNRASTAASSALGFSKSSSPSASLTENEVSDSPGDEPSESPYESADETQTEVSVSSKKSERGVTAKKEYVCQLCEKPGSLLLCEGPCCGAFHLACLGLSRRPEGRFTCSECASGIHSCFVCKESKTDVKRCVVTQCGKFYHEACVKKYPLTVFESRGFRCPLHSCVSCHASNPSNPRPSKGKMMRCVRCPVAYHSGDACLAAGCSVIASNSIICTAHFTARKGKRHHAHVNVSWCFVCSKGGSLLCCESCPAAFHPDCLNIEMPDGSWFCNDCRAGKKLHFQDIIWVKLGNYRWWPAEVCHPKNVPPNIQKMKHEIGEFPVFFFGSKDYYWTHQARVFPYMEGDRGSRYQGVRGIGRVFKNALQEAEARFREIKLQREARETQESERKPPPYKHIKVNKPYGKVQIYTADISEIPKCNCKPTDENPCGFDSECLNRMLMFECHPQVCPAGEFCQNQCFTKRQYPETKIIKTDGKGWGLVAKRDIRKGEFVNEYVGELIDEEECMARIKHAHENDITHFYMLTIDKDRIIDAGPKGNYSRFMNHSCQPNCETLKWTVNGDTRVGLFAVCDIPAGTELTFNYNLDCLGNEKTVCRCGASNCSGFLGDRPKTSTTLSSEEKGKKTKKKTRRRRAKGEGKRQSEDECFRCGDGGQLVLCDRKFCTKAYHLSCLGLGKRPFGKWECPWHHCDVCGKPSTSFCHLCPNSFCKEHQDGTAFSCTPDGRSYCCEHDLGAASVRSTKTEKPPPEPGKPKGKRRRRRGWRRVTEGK

[21] = test system: P388/ADR; assay: cells; assay type: functional; details: Mus musculus
[22] = test system: SN12K1; assay: cells; assay type: functional

72 kDa type IV collagenase, sequence (P08253 whole entry): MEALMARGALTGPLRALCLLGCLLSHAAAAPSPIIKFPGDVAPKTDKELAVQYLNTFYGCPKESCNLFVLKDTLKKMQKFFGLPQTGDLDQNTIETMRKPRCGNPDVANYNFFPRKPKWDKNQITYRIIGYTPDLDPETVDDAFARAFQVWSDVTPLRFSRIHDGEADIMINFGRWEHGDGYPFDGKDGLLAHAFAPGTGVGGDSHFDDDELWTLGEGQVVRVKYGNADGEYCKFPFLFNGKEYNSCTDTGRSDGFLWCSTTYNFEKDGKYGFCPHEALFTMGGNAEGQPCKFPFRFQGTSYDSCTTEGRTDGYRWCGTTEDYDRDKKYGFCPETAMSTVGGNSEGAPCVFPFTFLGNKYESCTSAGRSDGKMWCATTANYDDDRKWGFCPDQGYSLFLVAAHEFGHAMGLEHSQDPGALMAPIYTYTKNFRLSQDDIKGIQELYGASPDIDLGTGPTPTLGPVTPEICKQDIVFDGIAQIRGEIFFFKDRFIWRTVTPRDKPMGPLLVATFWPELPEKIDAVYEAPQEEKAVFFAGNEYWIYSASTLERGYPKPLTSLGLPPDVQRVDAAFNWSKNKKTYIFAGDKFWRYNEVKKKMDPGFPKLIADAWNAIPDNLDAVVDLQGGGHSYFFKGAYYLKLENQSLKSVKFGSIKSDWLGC
26S proteasome non-ATPase regulatory subunit 14, sequence (O00487 whole entry): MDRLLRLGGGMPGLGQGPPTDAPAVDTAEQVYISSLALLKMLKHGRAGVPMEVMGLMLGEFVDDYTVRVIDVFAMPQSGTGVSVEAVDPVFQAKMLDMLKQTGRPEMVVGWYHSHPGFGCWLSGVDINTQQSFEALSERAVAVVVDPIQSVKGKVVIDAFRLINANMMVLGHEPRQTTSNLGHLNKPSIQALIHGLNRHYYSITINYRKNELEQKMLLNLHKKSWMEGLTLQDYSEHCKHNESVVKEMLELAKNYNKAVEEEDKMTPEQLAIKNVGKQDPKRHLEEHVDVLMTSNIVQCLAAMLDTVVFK
Large T antigen, sequence (P03070 whole entry): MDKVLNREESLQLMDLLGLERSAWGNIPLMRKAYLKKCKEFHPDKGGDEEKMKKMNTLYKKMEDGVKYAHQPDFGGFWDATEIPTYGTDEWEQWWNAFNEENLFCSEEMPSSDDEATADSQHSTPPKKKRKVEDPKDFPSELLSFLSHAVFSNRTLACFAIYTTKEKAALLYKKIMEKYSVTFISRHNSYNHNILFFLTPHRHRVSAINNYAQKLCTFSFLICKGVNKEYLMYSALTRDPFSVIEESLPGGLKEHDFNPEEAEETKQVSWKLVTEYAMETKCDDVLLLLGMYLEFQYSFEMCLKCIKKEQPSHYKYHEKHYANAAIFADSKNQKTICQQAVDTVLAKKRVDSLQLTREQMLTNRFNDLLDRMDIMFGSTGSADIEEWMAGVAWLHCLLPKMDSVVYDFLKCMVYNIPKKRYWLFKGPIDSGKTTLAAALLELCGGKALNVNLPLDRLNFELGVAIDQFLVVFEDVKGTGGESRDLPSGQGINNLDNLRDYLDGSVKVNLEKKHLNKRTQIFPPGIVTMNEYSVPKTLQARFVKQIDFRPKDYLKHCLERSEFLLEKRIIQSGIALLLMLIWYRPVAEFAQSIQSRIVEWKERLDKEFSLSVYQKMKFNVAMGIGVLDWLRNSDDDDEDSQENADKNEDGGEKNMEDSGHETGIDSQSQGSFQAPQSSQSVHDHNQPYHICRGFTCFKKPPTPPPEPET
ATP-dependent molecular chaperone HSP82, sequence (C4YTQ8 whole entry): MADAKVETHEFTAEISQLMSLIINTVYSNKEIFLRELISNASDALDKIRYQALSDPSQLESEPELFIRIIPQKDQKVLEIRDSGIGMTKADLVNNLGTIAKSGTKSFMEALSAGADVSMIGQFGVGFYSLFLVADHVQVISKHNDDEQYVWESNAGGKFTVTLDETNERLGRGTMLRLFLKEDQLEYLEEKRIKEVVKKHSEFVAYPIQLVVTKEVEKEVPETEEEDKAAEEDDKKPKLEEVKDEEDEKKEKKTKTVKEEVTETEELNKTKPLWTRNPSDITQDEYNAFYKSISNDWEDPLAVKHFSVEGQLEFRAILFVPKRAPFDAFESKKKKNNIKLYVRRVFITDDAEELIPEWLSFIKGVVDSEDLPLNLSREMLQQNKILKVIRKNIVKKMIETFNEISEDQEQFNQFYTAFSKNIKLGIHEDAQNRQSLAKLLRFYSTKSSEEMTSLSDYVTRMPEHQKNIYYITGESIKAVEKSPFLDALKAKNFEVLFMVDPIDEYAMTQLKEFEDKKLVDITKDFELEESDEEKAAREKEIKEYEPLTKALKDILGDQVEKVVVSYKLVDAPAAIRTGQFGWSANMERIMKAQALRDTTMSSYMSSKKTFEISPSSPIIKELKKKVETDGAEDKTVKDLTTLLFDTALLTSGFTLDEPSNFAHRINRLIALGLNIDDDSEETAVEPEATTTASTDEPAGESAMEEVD
Nonstructural protein 1, sequence (Q194T2 whole entry): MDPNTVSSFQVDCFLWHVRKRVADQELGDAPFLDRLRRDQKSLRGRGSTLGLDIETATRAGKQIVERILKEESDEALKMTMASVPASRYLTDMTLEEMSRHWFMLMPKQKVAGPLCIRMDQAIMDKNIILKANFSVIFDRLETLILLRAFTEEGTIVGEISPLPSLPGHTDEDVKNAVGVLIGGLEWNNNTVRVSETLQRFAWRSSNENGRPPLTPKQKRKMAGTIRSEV

CCN(CC)S(=O)(=O)c1ccc(N/N=C/c2ccc(O)cc2O)nc1
IC50 [1]: 12.1 µM (active)
AC50 [2]: 5.04 µM (active)
EC50 [3]: > 350 µM (not active)
EC50 [4]: > 160 µM (inactive)
EC50 [5]: 0.945 µM (active)
EC50 [6]: > 180 µM (inactive)
EC50 [7]: 38.5 µM (active)
EC50 [8]: 4.61 µM (active)
IC50 [9]: 24.3 µM (active)

COc1ccc(NC(=O)Nc2ccc3c(c2)CC(=O)N([C@H](C)CO)C[C@H](C)[C@H](CN(C)S(=O)(=O)c2cccs2)O3)cc1
AC50 [10]: 1.55 µM (active)
AC50 [11]: 0.96 µM (active)
AC50 [12]: 5.21 µM (active)

COc1ccc(NC(=O)c2cccc3c(-c4cccnc4)coc23)cc1
IC50 [13]: > 100 µM (inactive)
IC50 [14]: 15.2 µM (active)
IC50 [15]: > 100 µM (inactive)

COc1cc2c(cc1O)CC[n+]1cc3c(OC)c(OC)ccc3cc1-2 [JATRORRHIZINE]
IC50 [16]: 10.1 µM (active)
EC50 [5]: 2.91 µM (active)
EC50 [7]: > 160 µM (inactive)
AC50 [17]: 15.2 µM (active)

O=C(N(c1ccccn1)c1ccccn1)C12CC3CC(CC(Cl)(C3)C1)C2
AC50 [10]: 4.96 µM (active)
AC50 [18]: 6.95 µM (active)
AC50 [11]: 5.04 µM (active)
AC50 [12]: 9.92 µM (active)

Cn1c(=O)oc2cc(S(=O)(=O)N3CCN(c4ccccc4F)CC3)ccc21
IC50 [13]: 52.9 µM (active)
IC50 [14]: 20.7 µM (active)
IC50 [15]: > 100 µM (inactive)

Cn1c2ccccc2c(=O)c2cc(NCCCN3CCOCC3)ccc21
AC50 [19]: 11.7 µM (active)
AC50 [17]: 7.92 µM (active)

CC[C@]1(C(=O)OC)[C@H]2C(=O)N(Cc3ccccc3)C(=O)[C@H]2[C@H]2CN=C(SCc3ccccc3)N21
AC50 [10]: 1.16 µM (active)
AC50 [18]: 1.55 µM (active)
AC50 [11]: 1.01 µM (active)
AC50 [12]: 1.68 µM (active)

CC(C)(C)c1nc2ccccc2c2nnc(SCC(=O)Nc3nc4ccccc4s3)n12
IC50 [13]: > 100 µM (inactive)
IC50 [14]: 3.79 µM (active)
IC50 [15]: > 100 µM (inactive)

CCN(CC)CCN(C(=O)c1ccc2ncsc2c1)c1nc2cc3c(cc2s1)OCO3
AC50 [19]: 51.9 µM (active)

CCN(CC)CCNc1nc(SC)nc2sc3c(c12)CCN(C)C3
AC50 [20]: > 20 µM (inactive)
AC50 [19]: 95.3 µM (active)
AC50 [17]: 5.18 µM (active)

CCN(CC)CC[n+]1ccc2c(C)c3[nH]c4ccccc4c3c(C)c2c1
GI50 [21]: 29.9 µM (inactive)
GI50 [22]: 0.137 µM (active)
